Results from patent US20260250320A1, “LIPIDATED PEPTIDE INHIBITORS OF INTERLEUKIN-23 RECEPTOR” (Janssen Pharmaceutica NV, priority 2023, published 2026).
*1 amine or outer side, *2 acyl side, *3 side chain or, on linkers, in order; H or OH if unused. Where a SMILES comes first, the peptide text is derived from it. Bridges are numbered along the chain shown (N, C = ends). Side-chain parts run from the residue outwards. [ ]: non-standard residue; d: D form. The star is where a group is joined. X18 = O=C(O)CCCCCCCCCCCCCCCCC(=O)N[C@@H](CCC(=O)NCCOCCOCCOCCOCCOCOCCOCCOCCOCCOCCOCCOCCC(=O)*)C(=O)O; X8 = CC(=O)[C@H](CCCCNC(=O)CC[C@H](NC(=O)CCCCCCCCCCCCCCCCC(=O)O)C(=O)O)N(C)*; Me3N+CH2CH2(OCH2CH2)4CO = C[N+](C)(C)CCOCCOCCOCCOCCC(=O)*; PEG12 = NCCOCCOCCOCCOCCOCCOCCOCCOCCOCCOCCOCCOCCC(=O)O; Trp(7-Me) = Cc1cccc2c(C[C@H](N)C(=O)O)c[nH]c12; C20 diacid = O=C(O)CCCCCCCCCCCCCCCCCCC(=O)*; C18 diacid = O=C(O)CCCCCCCCCCCCCCCCC(=O)*; X6 = CN(CC[C@H](N[*:1])C(=O)[*:2])[*:3]; γGlu = O=C(O)[C@H](CCC(=O)[*:2])N[*:1]; 2Nal = N[C@@H](Cc1ccc2ccccc2c1)C(=O)O; AEF = NCCOc1ccc(C[C@H](N)C(=O)O)cc1; X7 = C[N+](C)(C)CCOCCOCCOCCOC(=O)*; 3Pal = N[C@@H](Cc1cccnc1)C(=O)O; Pen = CC(C)(S)[C@H](N)C(=O)O; Thp = NC1(C(=O)O)CCOCC1; Sar = CNCC(=O)O

Key:
[1] = test system: IL-23-stimulated phosphorylated STAT3 in peripheral blood mononuclear cells (PBMCs); assay: PBMC pSTAT3 Assay; assay type: cell-based; conditions: PBMCs from healthy donors; 30 min preincubation with peptide; IL-23 5 ng/mL for 30 min; phospho-STAT3 by MSD
In short: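 Healthy-donor PBMCs expanded 4 days on anti-CD3 with 100 ng/mL IL-1β, starved ~4 h in RPMI-0.1% BSA, preincubated 30 min with peptide, then stimulated 30 min at 37 °C with 5 ng/mL IL-23. Lysate pSTAT3 measured by MSD phospho-STAT panel; IC50 derived.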

IL-23R = biological target: T1, IL-23R (Homo sapiens, UniProt Q5VWK5); assay: IL23R Reporter Assay; assay type: cell-based; conditions: HEK293 cells containing IL-23R, IL-12Rβ1 and STAT-inducible firefly luciferase reporter; 10 ng/mL IL-23 (EC90); 5 h
T1 construct: HEK293 cells containing IL-23R, IL-12Rβ1 and a firefly luciferase reporter gene driven by a STAT-inducible promoter (Promega); host or cells: HEK293
T1 sequence (Q5VWK5 24-629): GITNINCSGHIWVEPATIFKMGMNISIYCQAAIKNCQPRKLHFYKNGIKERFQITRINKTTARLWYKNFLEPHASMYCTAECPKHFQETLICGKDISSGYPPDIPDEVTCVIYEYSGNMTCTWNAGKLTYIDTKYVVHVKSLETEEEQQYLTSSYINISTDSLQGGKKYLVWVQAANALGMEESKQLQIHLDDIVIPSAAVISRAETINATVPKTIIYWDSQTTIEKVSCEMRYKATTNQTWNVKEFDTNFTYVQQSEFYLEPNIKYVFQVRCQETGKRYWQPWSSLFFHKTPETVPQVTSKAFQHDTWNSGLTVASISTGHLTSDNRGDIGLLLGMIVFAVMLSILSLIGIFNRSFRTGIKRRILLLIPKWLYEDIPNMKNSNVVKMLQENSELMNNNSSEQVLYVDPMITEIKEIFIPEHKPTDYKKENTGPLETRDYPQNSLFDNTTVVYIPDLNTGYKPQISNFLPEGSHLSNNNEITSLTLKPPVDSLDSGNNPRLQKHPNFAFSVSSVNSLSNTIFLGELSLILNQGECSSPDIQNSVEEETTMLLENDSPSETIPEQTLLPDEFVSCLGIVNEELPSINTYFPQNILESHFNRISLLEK
In short: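 HEK293 cells carrying IL-23R, IL-12Rβ1 and a STAT-driven firefly luciferase reporter (4000 cells/well) received compound, then 10 ng/mL IL-23 solution (EC90), and were incubated for 5 h at 37° C. BioGlo luminescence was normalised to IL-23 alone (0%) and 30 μM control inhibitor (100%). IC50 came from a 4-parameter Hill fit.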

| SMILES | IC50 (IL-23R) | IC50 [1] |
| --- | --- | --- |
| CC(=O)NCCCC[C@@H]1NC(=O)[C@H](Cc2c[nH]c3c(C)cccc23)NC(=O)[C@H]([C@@H](C)O)NC(=O)[C@H](CCCCNC(=O)CCOCCOCCOCCOCCOCCOCCOCOCCOCCOCCOCCOCCNC(=O)CC[C@H](NC(=O)CCCCCCCCCCCCCCCCC(=O)O)C(=O)O)NC(=O)[C@@H](NC(C)=O)C(C)(C)SSC(C)(C)[C@@H](C(=O)N[C@@H](Cc2ccc(OCCN)cc2)C(=O)N[C@@H](Cc2ccc3ccccc3c2)C(=O)NC2(C(=O)N[C@@H](CCC(=O)O)C(=O)N[C@@H](CC(N)=O)C(=O)N[C@@H](Cc3cccnc3)C(=O)N(C)CC(N)=O)CCOCC2)NC1=O [compound 97, MeCO-Pen(3)-K(PEG12gEC18OH)-T-7MeW-K(Ac)-Pen(3)-AEF-2Nal-THP-E-N-3Pya-Sar-CONH2] (Ac-[Pen]K(X18)T[Trp(7-Me)]K(Ac)[Pen][AEF][2Nal][Thp]EN[3Pal][Sar]-NH2; disulfide 1-6) | < 50 nM | < 0.5 nM |
| CC(=O)NCCCC[C@@H]1NC(=O)[C@H](CC2CNc3c(C)cccc32)NC(=O)[C@H]([C@@H](C)O)NC(=O)[C@H](CC(N)=O)NC(=O)[C@@H](NC(C)=O)C(C)(C)SSC(C)(C)[C@@H](C(=O)N[C@@H](Cc2ccc(OCCN)cc2)C(=O)N[C@@H](Cc2ccc3ccccc3c2)C(=O)NC2(C(=O)N[C@@H](CCCCNC(=O)CCOCCOCCOCCOCCOCCOCCOCCOCCOCCOCCOCCOCCNCCC[C@H](NC(=O)CCCCCCCCCCCCCCCCC(=O)O)C(=O)O)C(=O)N[C@@H](C)C(=O)N[C@@H](Cc3ccccc3)C(=O)N(C)CC(N)=O)CCOCC2)NC1=O (stereo partly drawn) [compound 100, MeCO-Pen(3)-N-T-7MeW-K(Ac)-Pen(3)-AEF-2Nal-THP-K(PEG12gEC18OH)-N-3Pya-Sar-CONH2] | < 50 nM | < 0.5 nM |
| CC(=O)NCCCC[C@@H]1NC(=O)[C@H](Cc2c[nH]c3c(C)cccc23)NC(=O)[C@H]([C@@H](C)O)NC(=O)[C@H](CC(N)=O)NC(=O)[C@@H](NC(C)=O)C(C)(C)SSC(C)(C)[C@@H](C(=O)N[C@@H](Cc2ccc(OCCN)cc2)C(=O)N[C@@H](Cc2ccc3ccccc3c2)C(=O)NC2(C(=O)N[C@@H](CCCCNC(C)=O)C(=O)N[C@@H](CC(N)=O)C(=O)N[C@@H](Cc3cccnc3)C(=O)N(C)CC(=O)N[C@@H](CCCCNC(=O)CCOCCOCCOCCOCCOCCOCCOCCOCCOCCOCCOCCOCCNC(=O)CC[C@H](NC(=O)CCCCCCCCCCCCCCCCCCC(=O)O)C(=O)O)C(N)=O)CCOCC2)NC1=O [compound 101, MeCO-Pen(3)-N-T-7MeW-K(Ac)-Pen(3)-AEF-2Nal-THP-K(Ac)-N-3Pya-Sar-K(PEG12gEC20OH)-CONH2] | < 50 nM | < 0.5 nM |
| CC(=O)NCCCC[C@@H]1NC(=O)[C@H](Cc2c[nH]c3c(C)cccc23)NC(=O)[C@H]([C@@H](C)O)NC(=O)[C@H](CC(N)=O)NC(=O)[C@@H](NC(C)=O)C(C)(C)SSC(C)(C)[C@@H](C(=O)N[C@@H](Cc2ccc(OCCN)cc2)C(=O)N[C@@H](Cc2ccc3ccccc3c2)C(=O)NC2(C(=O)N[C@@H](CCCCNC(C)=O)C(=O)N[C@@H](CC(N)=O)C(=O)N[C@@H](Cc3cccnc3)C(=O)N(C)CC(=O)N[C@@H](CCCCNC(=O)CCOCCOCCOCCOCCOCCOCCOCCOCCOCCOCCOCCOCCNC(=O)CC[C@H](NC(=O)CCCCCCCCCCCCCCCCC(=O)O)C(=O)O)C(N)=O)CCOCC2)NC1=O [compound 102, MeCO-Pen(3)-N-T-7MeW-K(Ac)-Pen(3)-AEF-2Nal-THP-K(Ac)-N-3Pya-Sar-K(PEG12gEC18OH)-CONH2] | < 50 nM | < 0.5 nM |
| CC(=O)[C@H](CCCCNC(=O)CC[C@H](NC(=O)CCCCCCCCCCCCCCCCC(=O)O)C(=O)O)N(C)C(=O)[C@H](Cc1cccnc1)NC(=O)[C@H](CC(N)=O)NC(=O)[C@H](CCC(=O)O)NC(=O)C1(NC(=O)[C@H](Cc2ccc3ccccc3c2)NC(=O)[C@H](Cc2ccc(OCCN)cc2)NC(=O)[C@H]2NC(=O)[C@H](CCN(C)C(=O)OCCOCCOCCOCC[N+](C)(C)C)NC(=O)[C@H](Cc3c[nH]c4c(C)cccc34)NC(=O)[C@H]([C@@H](C)O)NC(=O)[C@H](CC(=O)N(C)C)NC(=O)[C@@H](NC(=O)CCOCCOCCOCCOCC[N+](C)(C)C)C(C)(C)SSC2(C)C)CCOCC1 [compound 106, cPEG5aCO-Pen(3)-N(N(Me)2)-T-7MeW-Dab(NMecPEG5a)-Pen(3)-AEF-2Nal-THP-E-N-3Pya-NMeK(gEC18OH)-CONH2] ({Me3N+CH2CH2(OCH2CH2)4CO}-[Pen]D(NMe2)T[Trp(7-Me)][X6](X7)[Pen][AEF][2Nal][Thp]EN[3Pal]-X8; disulfide 1-6) | 50 to 500 nM | 0.5 to 5 nM |

Further lines, with some results ahead:

| IC50 (IL-23R) | SMILES | IC50 [1] |
| --- | --- | --- |
| < 50 nM | CC(=O)NCCCC[C@@H]1NC(=O)[C@H](Cc2c[nH]c3c(C)cccc23)NC(=O)[C@H]([C@@H](C)O)NC(=O)[C@H](CC(N)=O)NC(=O)[C@@H](NC(=O)[C@@H](CCCCNC(=O)CCOCCOCCOCCOCCOCCOCCOCCOCCOCCOCCOCCOCCNC(=O)CC[C@H](NC(=O)CCCCCCCCCCCCCCCCC(=O)O)C(=O)O)NC(C)=O)C(C)(C)SSC(C)(C)[C@@H](C(=O)N[C@@H](Cc2ccc(OCCN)cc2)C(=O)N[C@@H](Cc2ccc3ccccc3c2)C(=O)NC2(C(=O)N[C@@H](CCCCNC(C)=O)C(=O)N[C@@H](CC(N)=O)C(=O)N[C@@H](Cc3cccnc3)C(=O)N(C)CC(N)=O)CCOCC2)NC1=O [compound 98, MeCO-k(PEG12gEC18OH)-Pen(3)-N-T-7MeW-K(Ac)-Pen(3)-AEF-2Nal-THP-K(Ac)-N-3Pya-Sar-CONH2] (Ac-[dK]([PEG12-γGlu-C18 diacid])[Pen]NT[Trp(7-Me)]K(Ac)[Pen][AEF][2Nal][Thp]K(Ac)N[3Pal][Sar]-NH2; disulfide 2-7) | < 0.5 nM |
| < 50 nM | CC(=O)NCCCC[C@@H]1NC(=O)[C@H](Cc2c[nH]c3c(C)cccc23)NC(=O)[C@H]([C@@H](C)O)NC(=O)[C@H](CCCCNC(=O)CCOCCOCCOCCOCCOCCOCCOCCOCCOCCOCCOCCOCCNC(=O)CC[C@H](NC(=O)CCCCCCCCCCCCCCCCC(=O)O)C(=O)O)NC(=O)[C@@H](NC(=O)[C@@H](CCCNC(=N)N)NC(C)=O)C(C)(C)SSC(C)(C)[C@@H](C(=O)N[C@@H](Cc2ccc(OCCN)cc2)C(=O)N[C@@H](Cc2ccc3ccccc3c2)C(=O)NC2(C(=O)N[C@@H](CCC(=O)O)C(=O)N[C@@H](CC(N)=O)C(=O)N[C@@H](Cc3cccnc3)C(=O)N(C)CC(N)=O)CCOCC2)NC1=O [compound 99, MeCO-r-Pen(3)-K(PEG12gEC20OH)-T-7MeW-K(Ac)-Pen(3)-AEF-2Nal-THP-E-N-3Pya-Sar-CONH2] (Ac-[dR][Pen]K([PEG12-γGlu-C18 diacid])T[Trp(7-Me)]K(Ac)[Pen][AEF][2Nal][Thp]EN[3Pal][Sar]-NH2; disulfide 2-7) | < 0.5 nM |
| < 50 nM | CC(=O)NCCCC[C@@H]1NC(=O)[C@H](Cc2c[nH]c3c(C)cccc23)NC(=O)[C@H]([C@@H](C)O)NC(=O)[C@H](CC(N)=O)NC(=O)[C@@H](NC(C)=O)C(C)(C)SSC(C)(C)[C@@H](C(=O)N[C@@H](Cc2ccc(OCCN)cc2)C(=O)N[C@@H](Cc2ccc3ccccc3c2)C(=O)NC2(C(=O)N[C@@H](CCC(=O)O)C(=O)N[C@@H](CC(N)=O)C(=O)N[C@@H](Cc3cccnc3)C(=O)N(C)CC(=O)N[C@@H](CCCCNC(=O)CCOCCOCCOCCOCCOCCOCCOCCOCCOCCOCCOCCOCCNC(=O)CC[C@H](NC(=O)CCCCCCCCCCCCCCCCCCC(=O)O)C(=O)O)C(N)=O)CCOCC2)NC1=O [compound 103, MeCO-Pen(3)-N-T-7MeW-K(Ac)-Pen(3)-AEF-2Nal-THP-E-N-3Pya-Sar-K(PEG12gEC20OH)-CONH2] | < 0.5 nM |
| < 50 nM | CC(=O)NCCCC[C@@H]1NC(=O)[C@H](Cc2c[nH]c3c(C)cccc23)NC(=O)[C@H]([C@@H](C)O)NC(=O)[C@H](CC(N)=O)NC(=O)[C@@H](NC(=O)[C@@H](CCCCNC(=O)CCOCCOCCOCCOCCOCCOCCOCCOCCOCCOCCOCCOCCNC(=O)CC[C@H](NC(=O)CCCCCCCCCCCCCCCCCCC(=O)O)C(=O)O)NC(C)=O)C(C)(C)SSC(C)(C)[C@@H](C(=O)N[C@@H](Cc2ccc(OCCN)cc2)C(=O)N[C@@H](Cc2ccc3ccccc3c2)C(=O)NC2(C(=O)N[C@@H](CCCCNC(C)=O)C(=O)N[C@@H](CC(N)=O)C(=O)N[C@@H](Cc3cccnc3)C(=O)N(C)CC(N)=O)CCOCC2)NC1=O [compound 104, MeCO-k(PEG12gEC20OH)-Pen(3)-N-T-7MeW-K(Ac)-Pen(3)-AEF-2Nal-THP-K(Ac)-N-3Pya-Ser-CONH2] (Ac-[dK]([PEG12-γGlu-C20 diacid])[Pen]NT[Trp(7-Me)]K(Ac)[Pen][AEF][2Nal][Thp]K(Ac)N[3Pal][Sar]-NH2; disulfide 2-7) | < 0.5 nM |
